The source of these data is patent US20240207267A1, “(R)-Glutarimide CRBN Ligands and Methods of Use” (BeiGene Switzerland GmbH, priority 2021, published 2024).

The target in assay [1] is CRBN&DDB1 protein (Homo sapiens (Human), UniProt Q96SW2). Kind of assay: CRBN&DDB1 HTRF (TR-FRET) assay, blocking binding of biotin labeled thalidomide. The conditions noted are these: CRBN&DDB1 protein (His Tag), 30 nM biotin labeled thalidomide. As to the method:
Biochemical potency of compound was determined by using CRBN& DDB1 protein (His Tag). Compounds were tested for blocking the binding of CRBN&DDB1 protein (CRBN, aa 40-442, DDB1, 1-1140, Viva Biotech) with biotin labeled thalidomide in an assay based on the time-resolved fluorescence-resonance energy transfer (TR-FRET) methodology. The assay was carried out in 384-well low volume black plates in a reaction mixture containing CRBN& DDB1 protein, 30 nM biotin labeled thalidomide and 0-10 μM compound in buffer containing 50 mM HEPES pH7.5, 50 mM NaCl, 0.01% BSA, 1 mM DTT and 0.015% Brij-35. The protein was preincubated with compound for 60 minutes at room temperature and biotin labeled thalidomide was added to plate. After further incubation at room temperature for 60 minutes detection reagents Mab Anti-6His Eu cryptate Gold (Cisbio, Cat #61HI2KLB) and Streptavidin-XL665 (Cisbio, Cat #610SAXLG) were added to plate. Plates were sealed and incubated at room temperature for 1 hour, and the TR-FRET signals (ex337 nm, em665 nm/620 nm) were recorded on a PHERAstar FSX plate reader (BMG Labtech). The inhibition percentage of CRBN& DDB1 protein interaction with biotin labeled thalidomide in presence of increasing concentrations of compounds was calculated based on the ratio of fluorescence at 665 nm to that at 620 nm. IC50 was derived from fitting the dose-response % inhibition data to the four-parameter logistic model by Dotmatics.
Four-parameter logistic equation: Y=Bottom+(Top−Bottom)/(1+10^((LogIC50−X) *HillSlope)). While X is Log of compound concentration. Y is % inhibition at X. Bottom is the bottom of the curve effect. Top is the top of the curve effect. HillSlope is the hill slope factor.
In general terms: TR-FRET usually uses a lanthanide donor and a delayed reading to cut background.

Assay [2] has as its system EGFR Del19/T790M/C797S (BaF3-DTC cells). Kind of assay: EGFR degradation HTRF assay in BaF3-DTC cells. Particulars: 16 h treatment, Table 1; for DTC Dmax: maximum percentage of degradation. In kind it is cell-based. As to the method:
(§1) BaF3-LTC(L858R/T790M/C797S) and BaF3-DTC(Del19/T790M/C797S) cells are treated with compounds diluted in 0.2% DMSO cell culture medium and incubate for 16 h, 37° C., 5% CO2, H1975- #28 cells are treated with compounds diluted in 0.2% DMSO cell culture medium on day 2, incubate for 16 h, 37° C., 5% CO2. the final concentration of compounds in all assay is start with 10 uM, 5-fold dilution, total 8 doses were included.
(§2) After 16 h treatment, add HTRF lysis buffer to each well; seal the plate and incubate 1 hour at room temperature on a plate shaker; Once the cells are lysed, 16 μL of cell lysate are transferred to a PE 384-well HTRF detection plate; 4 μL of pre-mixed HTRF antibodies are added to each well; Cover the plate with a plate sealer, spin 1000 rpm for 1 min, Incubate overnight at room temperature; Read on BMG PheraStar with HTRF protocol (337 nm-665 nm-620 nm).
(§3) The IC50 (DC50) value of a compound can be obtained by fitting the following equation
(§4) Y=Bottom+(TOP−Bottom)/(1+((IC50/X)^hillslope))
(§5) Wherein, X and Y are known values, and IC50, Hillslope, Top and Bottom are the parameters obtained by fitting with software. Y is the inhibition percentage (calculated from the equation), X is the concentration of the compound; IC50 is the concentration of the compound when the 50% inhibition is reached. The smaller the IC50 value is, the stronger the inhibitory ability of the compound is. Vice versa, the higher the IC50 value is, the weaker the ability the inhibitory ability of the compound is; Hillslope represents the slope of the fitted curve, generally around 1*; Bottom represents the minimum value of the curve obtained by data fitting, which is generally 0%±20%; Top represents the maximum value of the curve obtained by data fitting, which is generally 100%±20%. The experimental data were fitted by calculating and analyzing with Dotmatics data analysis software.

Assay [3] deals with EGFR L858R/T790M/C797S (BaF3-LTC cells) (Homo sapiens (Human), UniProt P00533, C797S/L858R/T790M). Kind of assay: EGFR degradation HTRF assay in BaF3-LTC cells. Type of assay: cell-based. Particulars: 16 h treatment; for DC50: Table 1, read-out: LTC DC50; for Dmax: maximum percentage of degradation, Table 1, read-out: LTC Dmax. The protocol: as §1, §2, §3, §4, §5
Assay [4] addresses BTK (TMD-8 cells) (Homo sapiens (Human), UniProt Q06187). Kind of assay: BTK degradation HTRF assay in TMD-8 cells (Test Example 3). In kind it is cell-based. The conditions noted are these: 6 h treatment, Table 5. As to the method:
TMD-8 cells were treated with compounds diluted in 0.2% DMSO, dilution was done according to the following protocol: (1) making 500× stock solution in DMSO from 1 mM by 6-fold dilution, total 8 doses were included; (2) making 2× solution in cell culture medium by transferring 0.5 μl 500× stock solution into […]; (3) adding 15 μl of 2× solution to cells for incubation of 6 h.
After 6 h treatment, 10 μl 4xlysis buffer was added to each well; the plate was sealed and incubated for 30 min at room temperature on a plate shaker; Once the cells was lysed, 16 μL of cell lysate were transferred to a PE 384-well HTRF detection plate; 4 μL of pre-mixed HTRF antibodies were added to each well; the plate was covered with a plate sealer, and then spinned at 1000 rpm for 1 min, then incubated overnight at room temperature; the results were read on BMG PheraStar with HTRF protocol (337 nm-665 nm-620 nm).
as §3, §4
as §5, with “wherein,” for “Wherein,”

The test system of assay [5] is HEK-293 cells. Kind of assay: HEK-293 cytotoxicity detection (CellTiter-Glo). Type of assay: cell-based. Particulars: Homo sapiens, HEK293, 72 h incubation. The protocol:
HEK-293 cells were treated with compounds diluted in 0.2% DMSO, dilution was done according to the following protocol: (1) making 500× stock solution in DMSO from 5 mM by 4-fold dilution, total 8 doses were included; (2) making 2× solution in cell culture medium by transferring 0.5ul 500× stock solution into 125ul medium; (3) adding 50ul of 2× solution to cells for incubation of 72 h.
25 μl of the CellTiter-Glo®Reagent [(Promega) - Cat No. G7572] was added to each well in the 96-well plate. The contents were mixed for 2 minutes on an orbital shaker to induce cell lysis. The plate was then allowed to incubate at room temperature for 10 minutes to stabilize luminescent signal. Luminescence was recorded on BMG PheraStar with luminescence protocol.
The IC50 value of a compound can be obtained by fitting the following equation
as §4, §5
Background: In ATP-based viability assays light output follows the ATP content of the culture.

Bounds are passed on as bounds.

Sequence of BTK (TMD-8 cells) (Q06187 whole entry): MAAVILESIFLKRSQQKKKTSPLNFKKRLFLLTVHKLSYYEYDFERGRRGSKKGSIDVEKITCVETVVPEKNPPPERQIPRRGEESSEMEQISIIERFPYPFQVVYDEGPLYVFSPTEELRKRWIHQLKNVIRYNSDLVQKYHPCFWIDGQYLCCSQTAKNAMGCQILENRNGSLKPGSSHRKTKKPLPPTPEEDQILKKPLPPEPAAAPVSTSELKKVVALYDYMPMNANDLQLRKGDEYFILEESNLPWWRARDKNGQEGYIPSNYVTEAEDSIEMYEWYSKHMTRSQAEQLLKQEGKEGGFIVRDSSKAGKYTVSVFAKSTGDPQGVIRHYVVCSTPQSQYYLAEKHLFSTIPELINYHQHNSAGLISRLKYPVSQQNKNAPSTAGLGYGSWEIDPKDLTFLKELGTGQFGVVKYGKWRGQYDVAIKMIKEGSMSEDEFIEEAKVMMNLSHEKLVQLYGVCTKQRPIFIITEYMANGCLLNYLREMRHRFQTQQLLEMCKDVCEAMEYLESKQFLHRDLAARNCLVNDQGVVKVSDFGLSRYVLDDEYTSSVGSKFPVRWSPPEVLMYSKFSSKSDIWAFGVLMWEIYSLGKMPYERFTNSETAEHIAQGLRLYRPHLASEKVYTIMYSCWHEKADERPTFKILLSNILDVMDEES
Sequence of EGFR L858R/T790M/C797S (BaF3-LTC cells) (P00533 25-1210 T790M/C797S/L858R): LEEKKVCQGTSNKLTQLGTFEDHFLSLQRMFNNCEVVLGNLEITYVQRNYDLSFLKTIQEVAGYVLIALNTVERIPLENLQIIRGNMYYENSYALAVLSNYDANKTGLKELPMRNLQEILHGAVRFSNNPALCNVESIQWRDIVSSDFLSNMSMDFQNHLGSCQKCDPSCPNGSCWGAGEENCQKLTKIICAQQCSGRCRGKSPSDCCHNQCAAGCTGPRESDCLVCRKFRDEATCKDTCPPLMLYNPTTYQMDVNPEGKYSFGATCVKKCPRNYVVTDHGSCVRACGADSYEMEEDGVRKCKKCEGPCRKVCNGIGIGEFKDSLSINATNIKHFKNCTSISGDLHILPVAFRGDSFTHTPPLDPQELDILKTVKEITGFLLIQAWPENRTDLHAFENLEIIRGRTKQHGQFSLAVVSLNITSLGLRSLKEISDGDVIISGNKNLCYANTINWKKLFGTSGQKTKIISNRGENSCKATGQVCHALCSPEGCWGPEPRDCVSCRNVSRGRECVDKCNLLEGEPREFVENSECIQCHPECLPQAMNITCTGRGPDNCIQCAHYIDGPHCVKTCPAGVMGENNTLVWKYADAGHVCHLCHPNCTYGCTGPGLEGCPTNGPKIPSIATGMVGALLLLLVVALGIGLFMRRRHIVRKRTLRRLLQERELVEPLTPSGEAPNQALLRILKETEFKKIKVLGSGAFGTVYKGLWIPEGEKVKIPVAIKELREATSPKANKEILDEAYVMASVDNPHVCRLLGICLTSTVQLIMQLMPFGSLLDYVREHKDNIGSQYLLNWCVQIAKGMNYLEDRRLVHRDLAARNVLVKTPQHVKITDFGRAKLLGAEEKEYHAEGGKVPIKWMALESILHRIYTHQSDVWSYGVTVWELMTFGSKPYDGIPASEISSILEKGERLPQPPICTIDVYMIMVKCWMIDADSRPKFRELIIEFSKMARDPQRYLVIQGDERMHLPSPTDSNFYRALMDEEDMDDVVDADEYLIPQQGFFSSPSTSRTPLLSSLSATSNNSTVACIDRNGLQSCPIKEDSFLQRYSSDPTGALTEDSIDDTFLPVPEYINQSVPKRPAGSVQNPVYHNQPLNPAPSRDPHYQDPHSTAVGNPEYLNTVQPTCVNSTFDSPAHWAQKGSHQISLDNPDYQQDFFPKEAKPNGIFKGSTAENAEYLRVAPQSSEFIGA
Sequence of CRBN&DDB1 protein (Q96SW2 40-442): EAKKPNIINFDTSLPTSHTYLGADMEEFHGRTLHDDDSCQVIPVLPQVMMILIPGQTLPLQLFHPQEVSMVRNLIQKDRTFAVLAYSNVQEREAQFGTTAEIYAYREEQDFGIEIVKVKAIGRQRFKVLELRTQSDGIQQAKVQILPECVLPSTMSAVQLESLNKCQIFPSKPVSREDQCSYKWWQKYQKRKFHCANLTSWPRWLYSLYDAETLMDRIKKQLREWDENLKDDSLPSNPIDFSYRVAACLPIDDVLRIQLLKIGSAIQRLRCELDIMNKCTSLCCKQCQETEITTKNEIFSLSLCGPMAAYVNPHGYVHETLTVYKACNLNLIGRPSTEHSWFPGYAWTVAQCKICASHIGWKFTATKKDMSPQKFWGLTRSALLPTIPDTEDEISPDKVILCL
Sequence of CRBN&DDB1 protein (Q16531 whole entry partner, the tested form may be a part): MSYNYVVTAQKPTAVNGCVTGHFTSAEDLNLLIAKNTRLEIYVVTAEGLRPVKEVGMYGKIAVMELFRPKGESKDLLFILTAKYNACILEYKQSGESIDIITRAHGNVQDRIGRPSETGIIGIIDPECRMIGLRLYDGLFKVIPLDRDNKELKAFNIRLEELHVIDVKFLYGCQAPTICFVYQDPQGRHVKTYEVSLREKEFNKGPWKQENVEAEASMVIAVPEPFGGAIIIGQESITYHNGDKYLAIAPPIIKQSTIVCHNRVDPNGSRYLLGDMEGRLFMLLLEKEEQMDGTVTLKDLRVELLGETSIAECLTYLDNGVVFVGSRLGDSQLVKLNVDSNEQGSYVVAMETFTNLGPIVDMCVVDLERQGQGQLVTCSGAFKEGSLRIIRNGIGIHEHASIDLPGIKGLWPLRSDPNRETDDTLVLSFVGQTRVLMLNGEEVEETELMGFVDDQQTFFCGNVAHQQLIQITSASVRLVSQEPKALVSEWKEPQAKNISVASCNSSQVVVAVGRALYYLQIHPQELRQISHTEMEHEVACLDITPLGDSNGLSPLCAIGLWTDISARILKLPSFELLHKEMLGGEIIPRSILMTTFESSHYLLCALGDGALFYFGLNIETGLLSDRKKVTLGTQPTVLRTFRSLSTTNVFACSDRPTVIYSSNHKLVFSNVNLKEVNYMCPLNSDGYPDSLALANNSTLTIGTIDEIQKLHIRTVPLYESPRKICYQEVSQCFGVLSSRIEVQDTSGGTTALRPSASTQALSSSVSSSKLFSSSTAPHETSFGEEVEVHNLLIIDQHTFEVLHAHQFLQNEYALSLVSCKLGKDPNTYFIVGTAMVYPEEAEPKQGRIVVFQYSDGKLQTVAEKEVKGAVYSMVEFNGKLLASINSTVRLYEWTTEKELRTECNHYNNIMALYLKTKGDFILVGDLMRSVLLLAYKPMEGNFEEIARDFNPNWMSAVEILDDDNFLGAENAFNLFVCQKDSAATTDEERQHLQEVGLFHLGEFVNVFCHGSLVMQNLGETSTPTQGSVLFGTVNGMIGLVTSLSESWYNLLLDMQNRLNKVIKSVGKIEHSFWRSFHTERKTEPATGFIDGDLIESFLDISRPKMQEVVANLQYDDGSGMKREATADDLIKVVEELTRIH

By IC50 is commonly meant the midpoint of a concentration-inhibition curve. Lower therefore signals greater potency in that assay. In the case of `O=C1CCC(c2ccc(N3CC[C@@H](C(=O)O)C3)cc2)C(=O)N1` (stereo partly drawn) [Example 12, (3R)-1-(4-(2,6-dioxopiperidin-3-yl)phenyl)pyrrolidine-3-carboxylic acid], the IC50 in assay [1] was determined as 178 nM.
`CCO/C=C/c1cc(F)c([C@H]2CCC(=O)NC2=O)c(F)c1` [Example 13, (R,E)-3-(4-(2-ethoxyvinyl)-2,6-difluorophenyl)piperidine-2,6-dione]: the 50% inhibitory concentration (IC50) in assay [1] was 27 nM.
Turning to `CC1(C)CN(c2cc(F)c([C@H]3CCC(=O)NC3=O)c(F)c2)C[C@H]1C(=O)O` [Example 14, (S)-1-(4-((R)-2,6-dioxopiperidin-3-yl)-3,5-difluorophenyl)-4,4-dimethylpyrrolidine-3-carboxylic acid], the IC50 in assay [1] is 24 nM.
Regarding `O=C1CCC(c2ccc(CCO)cc2)C(=O)N1` (stereo not drawn) [Example 15, 3-(4-(2-hydroxyethyl)phenyl)piperidine-2,6-dione], the IC50 in assay [1] is 239 nM.
By DC50 is commonly meant the midpoint of the concentration-degradation curve. The Dmax is the largest share of the target that was removed. In the case of `CCc1cc(Nc2ncc(Br)c(Nc3ccc4nccnc4c3P(C)(C)=O)n2)c(OC)cc1N1CCC(N2CCN(CCc3cc(F)c([C@H]4CCC(=O)NC4=O)c(F)c3)CC2)CC1` [Example 16, (R)-3-(4-(2-(4-(1-(4-((5-bromo-4-((5-(dimethylphosphoryl)quinoxalin-6-yl)amino)pyrimidin-2-yl)amino)-2-ethyl-5-methoxyphenyl)piperidin-4-yl)piperazin-1-yl)ethyl)-2,6-difluorophenyl)piperidine-2,6-dione], in assay [2], it took 0.61 nM to reach half-maximal degradation (DC50) and the “DTC Dmax” value is reported as 88.65%. In assay [3], the DC50 came out at 6.1 nM and the Dmax was 91.5%.
For `CCc1cc(Nc2ncc(Br)c(Nc3ccc4nccnc4c3P(C)(C)=O)n2)c(OC)cc1N1CCC(N2CCN(CCc3cc(F)c([C@@H]4CCC(=O)NC4=O)c(F)c3)CC2)CC1` [Example 17, (S)-3-(4-(2-(4-(1-(4-((5-bromo-4-((5-(dimethylphosphoryl)quinoxalin-6-yl)amino)pyrimidin-2-yl)amino)-2-ethyl-5-methoxyphenyl)piperidin-4-yl)piperazin-1-yl)ethyl)-2,6-difluorophenyl)piperidine-2,6-dione], in that order: 6.75 nM, 64.81%, 45.1 nM and 84.6%.
On to `CCc1cc(Nc2ncc(Br)c(Nc3ccc4nccnc4c3P(C)(C)=O)n2)c(OC)cc1N1CCC(N2CCN(CCc3cc(F)c(C4CCC(=O)NC4=O)c(F)c3)CC2)CC1` (stereo not drawn) [Example 18, 3-(4-(2-(4-(1-(4-((5-bromo-4-((5-(dimethylphosphoryl)quinoxalin-6-yl)amino)pyrimidin-2-yl)amino)-2-ethyl-5-methoxyphenyl)piperidin-4-yl)piperazin-1-yl)ethyl)-2,6-difluorophenyl)piperidine-2,6-dione], for which, in assay [2], the DC50 stood at 3.74 nM and the “DTC Dmax” value is listed as 95.55%. Moreover, in assay [3], the DC50 is 8.82 nM.
Taken in the same sequence, the figures for `CCc1cc(Nc2ncc(Br)c(Nc3ccc4nccnc4c3P(C)(C)=O)n2)c(OC)cc1N1CCC(N2CCN(CCc3ccc(C4CCC(=O)NC4=O)cc3)CC2)CC1` (stereo not drawn) [Example 19, 3-(4-(2-(4-(1-(4-((5-bromo-4-((5-(dimethylphosphoryl)quinoxalin-6-yl)amino)pyrimidin-2-yl)amino)-2-ethyl-5-methoxyphenyl)piperidin-4-yl)piperazin-1-yl)ethyl)phenyl)piperidine-2,6-dione] were 6.87 nM, 92.16% and 18.2 nM.
`Cc1cccc(NC(=O)c2ccc(-c3nn4c(c3C(N)=O)Nc3ccc(N5CCN(CCc6cc(F)c([C@H]7CCC(=O)NC7=O)c(F)c6)CC5)cc3CC4)c(F)c2C)n1` [Example B35, (R)-7-(4-(4-(2,6-dioxopiperidin-3-yl)-3,5-difluorophenethyl)piperazin-1-yl)-2-(2-fluoro-3-methyl-4-((6-methylpyridin-2-yl)carbamoyl)phenyl)-9,10-dihydro-4H-benzo[d]pyrazolo[1,5-a][1,3]diazepine-3-carboxamide]: it took 2.32 nM to reach half-maximal degradation in assay [4] (DC50). This molecule also returned an IC50 in assay [5] of over 10 µM.
With `Cc1c(C(=O)Nc2cn(C)cn2)ccc(-c2nn3c(c2C(N)=O)Nc2ccc(N4CCN(CCc5cc(F)c([C@H]6CCC(=O)NC6=O)c(F)c5)CC4)cc2CC3)c1F` [Example B37, (R)-7-(4-(4-(2,6-dioxopiperidin-3-yl)-3,5-difluorophenethyl)piperazin-1-yl)-2-(2-fluoro-3-methyl-4-((1-methyl-1H-imidazol-4-yl)carbamoyl)phenyl)-9,10-dihydro-4H-benzo[d]pyrazolo[1,5-a][1,3]diazepine-3-carboxamide], the 50% degradation concentration (DC50) in assay [4] was determined as 0.414 nM. In addition, the half-inhibitory concentration (IC50) in assay [5] was over 10 µM.
Taken in the same sequence, the figures for `Cc1c(C(=O)Nc2cscn2)ccc(-c2nn3c(c2C(N)=O)Nc2ccc(N4CCN(CCc5cc(F)c([C@H]6CCC(=O)NC6=O)c(F)c5)CC4)cc2CC3)c1F` [Example B38, (R)-7-(4-(4-(2,6-dioxopiperidin-3-yl)-3,5-difluorophenethyl)piperazin-1-yl)-2-(2-fluoro-3-methyl-4-(thiazol-4-ylcarbamoyl)phenyl)-9,10-dihydro-4H-benzo[d]pyrazolo[1,5-a][1,3]diazepine-3-carboxamide] were 1.7 nM and 0.0268 µM.
